The source of these data is US10590109B2, “Heterocyclic compounds used as FGFR inhibitors” (Nanjing InnoCare Pharma Tech Co., Ltd., priority 2016, dated 2020).

In test [1] the target is human recombinant FGFR1 catalytic structural domain protein (Homo sapiens (Human), UniProt P11362). As to the kind of experiment: FGFR1 activity inhibition test (HTRF kinase assay). Format: biochemical. The conditions noted are these: 40 μM ATP.
Test [2] relates to Hep3B cells. The test is described as follows: Hep3B cell proliferation inhibition test (CellTiter-Glo). Format: cell-based. As to conditions: Homo sapiens, 72 h, CTG. The procedure:
Hep3B Cell Proliferation Inhibition Test
The influence of the compound according to the present invention on Hep3B cell proliferation was evaluated by a luminescence cell viability test.
The experimental method is summarized as follows:
A CellTilter-Glo (CTG) assay kit was used to detect an indicator ATP of active cellular metabolism by means of a unique stable luciferase, and the luminous signal produced in the test was in direct proportion to the count of active cells in the medium, thereby to detect the cell proliferation of Hep3B.
A CellTilter-Glo agent (Promega, G7572) was comprised of a CellTilter-Glo lyophilized powder and a CellTilter-Glo buffer, and the lyophilized powder was dissolved into the buffer in use.
Hep3B cells (ATCC, HB-8064) (cell source: Shanghai Academy of Life Sciences, Chinese Academy of Sciences) were cultured in a DMEM complete medium (Thermofisher, 11995073) containing a 10% FBS (GBICO, 10099-141) and 100 units/ml mycillin mixed solution (Thermofisher, 15140122). When the cells coverage reached 80-90% in the culture vessel, after the cells were digested and blown about with 0.25% pancreatin (containing EDTA) (Thermofisher, 25200056), they were planted in a white 384 well plate (Thermofisher, 164610), with 1000 cells in each well (27 μl of a DMEM complete medium), and then the 384 well plate was placed into an incubator at 37° C. and 5% CO2 and cultured overnight (18-20 h). The compound was dissolved and diluted in 100% DMSO to 100 μM, then 4-fold-series diluted with DMSO to a minimum concentration of 0.0061 μM, and each concentration point was 50-fold diluted with the FBS-free DMEM medium. If the IC50 value of the compound was very low, the initial concentration of the compound could be reduced. […] This 384 well plate was placed into an incubator at 37° C. and 5% CO2 for further culture, taken out after 72 h, and stood at room temperature for 30 min. The CTG agent was also taken out and balanced to room temperature. 15 μl of the CTG agent was added into each well, and placed onto a shaker to be gently shaken for 3 min to ensure sufficient cell lysis. After 10 min of standing to allow the luminescence signal to be stable, the luminescence signal was read with EnVision (Perkin Elmer).
The inhibition percentage of the compound against Hep3B cell proliferation could be calculated with the following formula: Inhibition percentage=100−100*(signalcompound−signalnegative control)/(signalpositive control−signalnegative control)
The IC50 value of the compound was calculated by the following formula, from 8 concentration points, with XLfit (ID Business Solutions Ltd., UK): Y=Bottom+(Top−Bottom)/(1+10^((Log IC50−X)*slope factor))
Where, Y is the inhibition percentage, Bottom is the bottom plateau of the curve (the bottom plateau of the S-type curve), Top is the top plateau of the curve (the top plateau of the S-type curve), and X is the log value of the compound concentration to be measured.
A general note: Cellular ATP, detected with luciferase, serves as a proxy for viable cell number.

The term IC50 denotes the midpoint of a concentration-inhibition curve.

Chain of human recombinant FGFR1 catalytic structural domain protein (P11362 other isoform, or with tags, fused parts or gaps): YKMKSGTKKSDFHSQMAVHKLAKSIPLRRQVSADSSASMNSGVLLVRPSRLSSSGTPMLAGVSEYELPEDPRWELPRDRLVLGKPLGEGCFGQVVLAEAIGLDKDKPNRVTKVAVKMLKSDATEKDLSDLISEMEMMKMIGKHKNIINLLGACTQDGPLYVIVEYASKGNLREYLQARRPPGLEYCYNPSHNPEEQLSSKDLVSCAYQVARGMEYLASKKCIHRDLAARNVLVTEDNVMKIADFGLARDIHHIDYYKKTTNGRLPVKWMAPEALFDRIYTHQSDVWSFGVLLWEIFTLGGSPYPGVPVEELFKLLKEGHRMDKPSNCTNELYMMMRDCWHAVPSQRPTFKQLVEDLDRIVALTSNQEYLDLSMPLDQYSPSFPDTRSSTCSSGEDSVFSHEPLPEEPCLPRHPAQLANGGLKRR

Turning to `COC[C@@H](C)Oc1cc(NC(=O)N(C)c2ccc(CN3CCOCC3=O)c(C=O)n2)ncc1C#N` [Compound 14, (R)-3-(5-cyano-4-((1-methoxyprop-2-yl)oxo)pyrid-2-yl)-1-(6-formyl-5-((3-carbonylmorpholino)methyl)pyrid-2-yl)-1-methylurea], the figures for the IC50 in test [1] and in test [2] were more than 1000 nM and less than 50 nM, respectively.
